From US8937088B2, “Ureas for the treatment and prevention of cancer” (Astar Biotech LLC, priority 2011, dated 2015)
Like-named read-outs stand apart in the source and are kept apart here.

Legend:
[1] = system: patient-derived primary squamous lung 14531 tumor; test: In vivo activity in SCID mouse model with lung cancer, 30-day treatment; settings: patient-derived primary squamous lung 14531 tumor in mouse, compared to the control
Description: Biological Test 4. In Vivo Activity in […] SCID Mouse Model with Lung Cancer
Biological Test 5. In Vivo Activity in Senograph SCID Mouse Model with Lung Cancer

[2] = system: HUH7 (human hepatoma cell line); test: Cell death detection, trypan blue exclusion assay, HUH7, in combination with AZD-6244; type: cell-based; settings: HUH7, 6-day treatment, compound 0.5 μM
Experimental: (§1) Biological Test 2. Cell Death Detection Using Trypan Blue Exclusion Assay.
(§2) After drug treatment, cells were harvested by trypsinization with trypsin/EDTA for 10 min at 37° C. As some apoptotic cells detached from the culture substratum into the medium, these cells were also collected by centrifugation of the medium at 1,200 rpm for 5 min. The pooled cell pellets were resuspended and mixed with trypan blue dye. After Trypan blue stain was done, cells were counted by using a light microscope and a hemocytometer. Blue dye-incorporating cells were scored as being dead. Five hundred cells from randomly chosen fields were counted, and the number of dead cells was counted and expressed as a percentage of the total number of cells counted as shown in Tables 2 to 8 below.

[3] = system: LNCaP (human prostate adenocarcinoma cell line); test: Cell death detection, trypan blue exclusion assay, LNCaP; type: cell-based; settings: read-out: Cell Death (%) at Tested Concentration
Experimental: as §1, §2

FLT3 = target: T1, FLT3 (Homo sapiens, UniProt P36888); test: In vitro kinase assay (Invitrogen SelectScreen Profiling Service), FLT3; type: biochemical; settings: FLT3, 0.1 μM
T1 sequence (P36888 27-993): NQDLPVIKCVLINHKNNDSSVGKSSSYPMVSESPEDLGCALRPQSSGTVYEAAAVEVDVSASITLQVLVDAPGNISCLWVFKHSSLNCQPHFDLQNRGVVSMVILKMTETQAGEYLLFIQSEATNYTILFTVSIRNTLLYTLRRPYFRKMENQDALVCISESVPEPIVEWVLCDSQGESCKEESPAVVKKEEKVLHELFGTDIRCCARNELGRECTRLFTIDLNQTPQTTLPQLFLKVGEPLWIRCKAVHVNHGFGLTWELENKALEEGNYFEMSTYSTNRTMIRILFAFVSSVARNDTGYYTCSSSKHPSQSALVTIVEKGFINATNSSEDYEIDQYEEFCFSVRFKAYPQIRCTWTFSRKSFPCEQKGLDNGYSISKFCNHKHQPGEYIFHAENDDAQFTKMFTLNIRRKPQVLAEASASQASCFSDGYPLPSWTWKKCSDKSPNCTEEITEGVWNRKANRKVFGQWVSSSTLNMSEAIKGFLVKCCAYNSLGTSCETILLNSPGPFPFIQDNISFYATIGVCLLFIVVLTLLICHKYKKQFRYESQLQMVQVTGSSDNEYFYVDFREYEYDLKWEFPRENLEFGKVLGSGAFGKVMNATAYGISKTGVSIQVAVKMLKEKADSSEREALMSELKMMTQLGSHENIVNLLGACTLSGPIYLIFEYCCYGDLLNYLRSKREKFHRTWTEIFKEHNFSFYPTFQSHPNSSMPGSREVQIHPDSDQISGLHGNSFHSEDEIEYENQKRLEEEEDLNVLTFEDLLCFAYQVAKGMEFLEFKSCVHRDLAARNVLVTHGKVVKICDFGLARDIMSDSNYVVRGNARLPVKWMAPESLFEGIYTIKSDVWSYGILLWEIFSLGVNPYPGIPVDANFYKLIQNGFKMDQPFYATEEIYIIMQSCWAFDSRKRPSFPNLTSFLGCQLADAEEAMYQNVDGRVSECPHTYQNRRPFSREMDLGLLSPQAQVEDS
Experimental: (§3) Biological Test 1. In Vitro Kinase Assay for BRAF, FLT3 and KDR(VEGFR2) The inhibitory activities of the compounds of the invention were measured by Invitrogen's SelectScreen® Profiling Service.

[4] = system: Hep3B (human hepatoma cell line); test: Cell death detection, trypan blue exclusion assay, Hep3B; type: cell-based; settings: 5-day treatment
Experimental: as §1, §2

KDR(VEGFR2) = KDR(VEGFR2) (Homo sapiens, UniProt P35968); test: In vitro kinase assay (Invitrogen SelectScreen Profiling Service), KDR; type: biochemical
Experimental: as §3

[5] = system: HT29 (human colon adenocarcinoma cell line); test: Cell death detection, trypan blue exclusion assay, HT29; type: cell-based; settings: HT29, 5-day treatment
Experimental: as §1, §2

[6] = system: HepG2 (human Hepatocellular carcinoma cell line); test: Cell death detection, trypan blue exclusion assay, HepG2; type: cell-based; settings: HepG2, 5-day treatment
Experimental: as §1, §2

[7] = system: HUH7 (human hepatoma cell line); test: Cell death detection, trypan blue exclusion assay, HUH7; type: cell-based; settings: Huh-7, 168 h, HUH7, 7-day treatment, read-out: Cell Death (%) at Tested Concentration
Experimental: as §1, §2

BRAF = BRAF (Homo sapiens, UniProt P15056); test: In vitro kinase assay (Invitrogen SelectScreen Profiling Service), BRAF; type: biochemical
Experimental: as §3

Chain of KDR(VEGFR2) (P35968 20-1356): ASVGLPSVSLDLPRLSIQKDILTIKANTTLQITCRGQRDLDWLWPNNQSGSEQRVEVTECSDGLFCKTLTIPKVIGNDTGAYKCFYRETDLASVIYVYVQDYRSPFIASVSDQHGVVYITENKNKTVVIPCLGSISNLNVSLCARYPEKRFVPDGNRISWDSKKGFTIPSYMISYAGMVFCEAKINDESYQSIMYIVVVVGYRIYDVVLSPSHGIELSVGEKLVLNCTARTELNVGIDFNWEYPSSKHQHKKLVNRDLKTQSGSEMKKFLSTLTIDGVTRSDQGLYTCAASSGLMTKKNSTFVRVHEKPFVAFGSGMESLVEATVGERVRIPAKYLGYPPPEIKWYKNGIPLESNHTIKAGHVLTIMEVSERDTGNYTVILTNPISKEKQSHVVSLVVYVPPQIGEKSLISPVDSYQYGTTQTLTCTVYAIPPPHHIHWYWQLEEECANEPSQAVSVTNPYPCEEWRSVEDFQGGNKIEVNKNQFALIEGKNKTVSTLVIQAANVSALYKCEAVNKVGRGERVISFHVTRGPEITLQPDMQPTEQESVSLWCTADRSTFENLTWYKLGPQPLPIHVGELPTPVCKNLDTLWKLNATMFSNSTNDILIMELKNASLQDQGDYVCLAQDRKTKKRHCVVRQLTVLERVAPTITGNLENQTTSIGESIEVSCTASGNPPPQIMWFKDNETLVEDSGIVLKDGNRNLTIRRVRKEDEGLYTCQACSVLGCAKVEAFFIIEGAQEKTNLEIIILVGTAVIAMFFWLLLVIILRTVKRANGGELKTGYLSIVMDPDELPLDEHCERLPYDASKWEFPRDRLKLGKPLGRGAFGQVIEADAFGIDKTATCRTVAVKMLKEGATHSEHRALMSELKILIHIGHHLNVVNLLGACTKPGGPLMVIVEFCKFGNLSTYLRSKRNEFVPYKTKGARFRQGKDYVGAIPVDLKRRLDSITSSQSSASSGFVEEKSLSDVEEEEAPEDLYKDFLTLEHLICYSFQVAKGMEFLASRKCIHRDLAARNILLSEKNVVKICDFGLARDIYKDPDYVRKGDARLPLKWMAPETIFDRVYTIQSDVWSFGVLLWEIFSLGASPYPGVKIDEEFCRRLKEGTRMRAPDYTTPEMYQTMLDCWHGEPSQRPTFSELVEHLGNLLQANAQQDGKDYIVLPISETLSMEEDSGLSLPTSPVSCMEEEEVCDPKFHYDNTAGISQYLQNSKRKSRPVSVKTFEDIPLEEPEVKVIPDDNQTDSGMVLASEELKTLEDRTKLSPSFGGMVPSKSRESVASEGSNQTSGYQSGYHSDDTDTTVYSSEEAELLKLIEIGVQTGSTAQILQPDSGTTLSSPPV
Chain of BRAF (P15056 whole entry): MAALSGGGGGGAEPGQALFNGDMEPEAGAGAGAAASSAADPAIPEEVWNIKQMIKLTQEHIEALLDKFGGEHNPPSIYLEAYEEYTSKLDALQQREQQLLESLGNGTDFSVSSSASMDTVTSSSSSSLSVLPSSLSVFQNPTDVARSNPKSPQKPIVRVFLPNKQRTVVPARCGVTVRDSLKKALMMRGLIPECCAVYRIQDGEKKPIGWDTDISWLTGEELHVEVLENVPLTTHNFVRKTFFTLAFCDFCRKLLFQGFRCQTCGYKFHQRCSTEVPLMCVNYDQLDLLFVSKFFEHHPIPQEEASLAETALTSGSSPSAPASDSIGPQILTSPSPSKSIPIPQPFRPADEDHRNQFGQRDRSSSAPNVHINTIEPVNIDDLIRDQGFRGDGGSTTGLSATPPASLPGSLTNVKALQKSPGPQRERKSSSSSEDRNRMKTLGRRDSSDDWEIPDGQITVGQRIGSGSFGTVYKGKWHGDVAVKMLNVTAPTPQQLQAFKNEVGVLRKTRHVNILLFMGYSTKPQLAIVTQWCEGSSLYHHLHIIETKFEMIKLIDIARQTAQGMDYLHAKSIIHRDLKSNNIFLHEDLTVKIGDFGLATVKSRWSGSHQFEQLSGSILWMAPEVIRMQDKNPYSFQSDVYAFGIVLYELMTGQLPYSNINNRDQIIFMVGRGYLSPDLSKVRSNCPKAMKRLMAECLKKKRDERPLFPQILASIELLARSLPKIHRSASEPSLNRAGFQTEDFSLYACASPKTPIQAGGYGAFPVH

With CNC(=O)c1cc(Oc2ccc(NC(=O)Nc3ccc(Cl)c(S(F)(F)(F)(F)F)c3)c(F)c2)ccn1 [Example 4, 4-[4-({[4-chloro-3-(pentafluoro-λ^6-sulfanyl)phenyl]carbamoyl}amino)-3-fluorophenoxy]-N-methylpyridine-2-carboxamide] the “effect in reducing the tumor volume” value [1] was “significant effect in reducing the tumor volume”, the “Cell Death (%) in combination with AZD-6244” value ([2]; AZD-6244 0 μM) was 2.6% and the “Cell Death (%) in combination with AZD-6244” value ([2]; AZD-6244 0.5 μM) was 99%. The cytotoxicity at 1 µM ([3]; 72 h, 3-day treatment) was 1.8%, the cytotoxicity at 2.5 µM ([3]; 72 h, 3-day treatment) was 1.4% and the cytotoxicity at 5 µM ([3]; 72 h, 3-day treatment) was 2.8%. For the same molecule, the cytotoxicity at 7.5 µM ([3]; 72 h, 3-day treatment) was 46.8%, the cytotoxicity at 10 µM ([3]; 72 h, 3-day treatment) was 94.8% and the cytotoxicity at 1 µM ([3]; 168 h, 7-day treatment) was 1.4%. The cytotoxicity at 2.5 µM ([3]; 168 h, 7-day treatment) was 2.7%, the cytotoxicity at 5 µM ([3]; 168 h, 7-day treatment) was 69.4% and the cytotoxicity at 7.5 µM ([3]; 168 h, 7-day treatment) was 99%. The cytotoxicity at 10 µM ([3]; 168 h, 7-day treatment) was 99%, the inhibition at 0.1 µM (FLT3) was 51% and the “Cell Death (%) at Tested Concentration” value ([4]; 0.25 uM) was 4.6%. For the same molecule, the “Cell Death (%) at Tested Concentration” value ([4]; 3.0 uM) was 67.2%, the “Cell Death (%) at Tested Concentration” value ([4]; 5.0 uM) was 96.7% and the inhibition at 0.1 µM (KDR(VEGFR2)) was 36%. The “Cell Death (%) at Tested Concentration” value ([5]; 2.5 uM) was 11.6%, the “Cell Death (%) at Tested Concentration” value ([5]; 5.0 uM) was 13.8% and the “Cell Death (%) at Tested Concentration” value ([5]; 10 uM) was 44.6%. For the same molecule, the “Cell Death (%) at Tested Concentration” value ([6]; 0.25 uM) was 1.9%, the “Cell Death (%) at Tested Concentration” value ([6]; 3.0 uM) was 4.5% and the “Cell Death (%) at Tested Concentration” value ([6]; 5.0 uM) was 27.6%. For the same molecule, the cytotoxicity at 1 µM ([7]; 1.0 uM) was 2.8%, the cytotoxicity at 2.5 µM ([7]; 2.5 uM) was 3.1% and the cytotoxicity at 5 µM ([7]; 5.0 uM) was 59.8%. The cytotoxicity at 7.5 µM ([7]; 7.5 uM) was 91.4%, the cytotoxicity at 10 µM ([7]; 10 uM) was 93.4% and the inhibition at 0.1 µM (BRAF) was 8%.
